Reference: ChEMBL document CHEMBL3784944, “N-Indolylglycosides bearing modifications at the glucose C6-position as sodium-dependent glucose co-transporter 2 inhibitors” (Bioorg Med Chem, 2016)
Active and inactive are the calls of the source. The calls are words filed in the database; no cut-off is given here.

Experiments:
[1] = target: T1, Sodium/glucose cotransporter 2 (Homo sapiens, UniProt P31639); assay: Inhibition of human SGLT2 expressed in CHO-K1 cells assessed as reduction in [14C]AMG uptake after 120 mins by scintillation counting method; type: cell-based
T1 sequence (P31639 whole entry): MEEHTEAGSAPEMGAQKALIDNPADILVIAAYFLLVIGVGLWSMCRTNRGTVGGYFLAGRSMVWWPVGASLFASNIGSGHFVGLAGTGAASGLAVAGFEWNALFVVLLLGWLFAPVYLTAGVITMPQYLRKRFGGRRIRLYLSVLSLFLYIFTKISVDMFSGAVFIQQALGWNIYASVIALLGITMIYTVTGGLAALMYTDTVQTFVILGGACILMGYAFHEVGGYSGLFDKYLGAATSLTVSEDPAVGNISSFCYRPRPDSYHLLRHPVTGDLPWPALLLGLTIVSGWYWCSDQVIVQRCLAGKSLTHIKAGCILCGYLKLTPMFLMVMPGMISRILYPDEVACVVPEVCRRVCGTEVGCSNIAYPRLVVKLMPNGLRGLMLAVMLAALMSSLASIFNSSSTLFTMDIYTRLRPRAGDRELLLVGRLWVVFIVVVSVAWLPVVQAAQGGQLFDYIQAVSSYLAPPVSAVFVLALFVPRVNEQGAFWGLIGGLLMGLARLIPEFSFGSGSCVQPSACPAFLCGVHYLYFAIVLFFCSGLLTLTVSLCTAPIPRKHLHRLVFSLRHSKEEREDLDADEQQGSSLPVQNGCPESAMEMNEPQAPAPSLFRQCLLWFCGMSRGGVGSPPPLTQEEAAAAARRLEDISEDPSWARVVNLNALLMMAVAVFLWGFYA

[2] = Volume of distribution at steady state in Sprague-Dawley rat at 1.1 mg/kg, iv administered via bolus injection measured at 2 to 5 mins post dose by LC-MS/MS analysis; type: ADME, organism-based; conditions: in vivo, read-out: Vdss
[3] = Half life in Sprague-Dawley rat at 1.1 mg/kg, po by LC-MS/MS analysis; type: ADME, organism-based; conditions: in vivo
[4] = test system: Rattus norvegicus; assay: Induction of glucosuria in Sprague-Dawley rat assessed as increase in glucose excretion per 200 g body weight at 50 mg/kg, administered as single dose via oral gavage after 24 hrs by oral glucose tolerance test (reference value: 0.23 mg); type: functional
[5] = AUC (0 to infinity) in Sprague-Dawley rat at 1.1 mg/kg, po measured at 15 mins to 24 hrs post dose by LC-MS/MS analysis; type: ADME, organism-based; parameters: dose 1.1 mg/kg, time infinity, route oral; conditions: in vivo
[6] = AUC (0 to infinity) in Sprague-Dawley rat at 1.1 mg/kg, iv administered via bolus injection measured at 2 to 5 mins post dose by LC-MS/MS analysis; type: ADME, organism-based; parameters: dose 1.1 mg/kg, route intravenous, time infinity; conditions: in vivo
[7] = Oral bioavailability in Sprague-Dawley rat at 1.1 mg/kg measured at 15 mins to 24 hrs after drug challenge by LC-MS/MS analysis; type: ADME, organism-based; conditions: in vivo
[8] = Cmax in Sprague-Dawley rat at 1.1 mg/kg, po measured at 15 mins to 24 hrs post dose by LC-MS/MS analysis; type: ADME, organism-based; parameters: dose 1.1 mg/kg, route oral; conditions: in vivo
[9] = test system: Rattus norvegicus; assay: Effect on glucose AUC in Sprague-Dawley rat at 50 mg/kg, po administered as single dose via oral gavage after 0.5 to 1 hr by oral glucose tolerance test; type: functional, organism-based
[10] = test system: Rattus norvegicus; assay: Reduction of blood glucose level in Sprague-Dawley rat at 50 mg/kg, po administered as single dose via oral gavage after 0.5 to 1 hr by oral glucose tolerance test; type: functional, organism-based
[11] = Half life in Sprague-Dawley rat at 1.1 mg/kg, iv administered via bolus injection by LC-MS/MS analysis; type: ADME, organism-based; conditions: in vivo
[12] = Clearance in Sprague-Dawley rat at 1.1 mg/kg, iv administered via bolus injection measured at 2 to 5 mins post dose by LC-MS/MS analysis; type: ADME, organism-based; conditions: in vivo
[13] = Tmax in Sprague-Dawley rat at 1.1 mg/kg, po measured at 15 mins to 24 hrs post dose by LC-MS/MS analysis; type: ADME, organism-based; conditions: in vivo
[14] = test system: CHO-K1; assay: Selectivity ratio of EC50 for human SGLT1 expressed in CHO-K1 cells to EC50 for human SGLT2 expressed in CHO-K1 cells; type: cell-based
[15] = test system: Rattus norvegicus; assay: Induction of glucosuria in Sprague-Dawley rat assessed as increase in glucose excretion at 50 mg/kg administered as single dose via oral gavage after 24 hrs by oral glucose tolerance test; type: functional, organism-based

SMILES	EC50 [1] [µM]	other results
CCOc1cn(C[C@H]2O[C@@H](n3cc(Cc4ccc(C5CC5)cc4)c4c(Cl)cccc43)[C@H](O)[C@@H](O)[C@@H]2O)nn1	0.655	–
OC[C@H]1O[C@@H](n2cc(Cc3ccc(C4CC4)cc3)c3c(Cl)cccc32)[C@H](O)[C@@H](O)[C@@H]1O	0.014	Ratio EC50 [14]: 2
O=C(NCCCl)NC[C@H]1O[C@@H](n2cc(Cc3ccc(C4CC4)cc3)c3c(Cl)cccc32)[C@H](O)[C@@H](O)[C@@H]1O	0.598	–
CCOC(=O)NC(=O)NC[C@H]1O[C@@H](n2cc(Cc3ccc(C4CC4)cc3)c3c(Cl)cccc32)[C@H](O)[C@@H](O)[C@@H]1O	1	–
CCOC(=O)CNC(=O)NC[C@H]1O[C@@H](n2cc(Cc3ccc(C4CC4)cc3)c3c(Cl)cccc32)[C@H](O)[C@@H](O)[C@@H]1O	0.515	–
CCOC(=O)C(=O)NC[C@H]1O[C@@H](n2cc(Cc3ccc(C4CC4)cc3)c3c(Cl)cccc32)[C@H](O)[C@@H](O)[C@@H]1O	0.249	–
O[C@@H]1[C@@H](O)[C@H](n2cc(Cc3ccc(C4CC4)cc3)c3c(Cl)cccc32)O[C@H](Cn2cc(C3CC3)nn2)[C@H]1O	0.359	–
NC[C@H]1O[C@@H](n2cc(Cc3ccc(C4CC4)cc3)c3c(Cl)cccc32)[C@H](O)[C@@H](O)[C@@H]1O	0.237	Ratio EC50 [14]: 9
CCNC(=S)NC[C@H]1O[C@@H](n2cc(Cc3ccc(C4CC4)cc3)c3c(Cl)cccc32)[C@H](O)[C@@H](O)[C@@H]1O	0.716	–
CCOC(=O)CCC(=O)NC[C@H]1O[C@@H](n2cc(Cc3ccc(C4CC4)cc3)c3c(Cl)cccc32)[C@H](O)[C@@H](O)[C@@H]1O	0.588	–
O[C@@H]1[C@@H](O)[C@H](n2cc(Cc3ccc(C4CC4)cc3)c3c(Cl)cccc32)O[C@H](Cn2cc(C3CCCC3)nn2)[C@H]1O	1.59	–
O=C(O)CC(=O)NC[C@H]1O[C@@H](n2cc(Cc3ccc(C4CC4)cc3)c3c(Cl)cccc32)[C@H](O)[C@@H](O)[C@@H]1O	3.44	–
CCOC(=O)CC(=O)NC[C@H]1O[C@@H](n2cc(Cc3ccc(C4CC4)cc3)c3c(Cl)cccc32)[C@H](O)[C@@H](O)[C@@H]1O	0.118	–
COC(=O)c1cn(C[C@H]2O[C@@H](n3cc(Cc4ccc(C5CC5)cc4)c4c(Cl)cccc43)[C@H](O)[C@@H](O)[C@@H]2O)nn1	0.119	–
CCOC(=O)CNC(=S)NC[C@H]1O[C@@H](n2cc(Cc3ccc(C4CC4)cc3)c3c(Cl)cccc32)[C@H](O)[C@@H](O)[C@@H]1O	0.286	Ratio EC50 [14]: 3
COCCCNC(=S)NC[C@H]1O[C@@H](n2cc(Cc3ccc(C4CC4)cc3)c3c(Cl)cccc32)[C@H](O)[C@@H](O)[C@@H]1O	0.586	–
O=C(NCCCCl)NC[C@H]1O[C@@H](n2cc(Cc3ccc(C4CC4)cc3)c3c(Cl)cccc32)[C@H](O)[C@@H](O)[C@@H]1O	0.151	Ratio EC50 [14]: 6
O[C@@H]1[C@@H](O)[C@H](n2cc(Cc3ccc(C4CC4)cc3)c3c(Cl)cccc32)OC[C@H]1O	–	Ratio EC50 [14]: 2
O=C(O)c1cn(C[C@H]2O[C@@H](n3cc(Cc4ccc(C5CC5)cc4)c4c(Cl)cccc43)[C@H](O)[C@@H](O)[C@@H]2O)nn1	2.72	–

Further lines, with some results ahead:

EC50 [1] [µM]	SMILES	other results
0.151	O=C(CCBr)NC[C@H]1O[C@@H](n2cc(Cc3ccc(C4CC4)cc3)c3c(Cl)cccc32)[C@H](O)[C@@H](O)[C@@H]1O	–
0.042	CC(=O)NC[C@H]1O[C@@H](n2cc(Cc3ccc(C4CC4)cc3)c3c(Cl)cccc32)[C@H](O)[C@@H](O)[C@@H]1O	Vd [2]: 2.7 L/kg; half-life [3]: 2.5 h; Activity [4]: 101 mg; AUC(0-inf) [5]: 99 ng·h/mL; AUC(0-inf) [6]: 996 ng·h/mL; bioavailability [7]: 10%; Cmax [8]: 25.2 ng/mL; Activity [9]: inactive; Activity [10]: Active; half-life [11]: 3.2 h; clearance [12]: 18.8 mL/min/kg; Tmax [13]: 1.2 h
0.387	O=C(NC[C@H]1O[C@@H](n2cc(Cc3ccc(C4CC4)cc3)c3c(Cl)cccc32)[C@H](O)[C@@H](O)[C@@H]1O)c1ccno1	–
0.315	CNC(=S)NC[C@H]1O[C@@H](n2cc(Cc3ccc(C4CC4)cc3)c3c(Cl)cccc32)[C@H](O)[C@@H](O)[C@@H]1O	–
0.284	COC(=O)C(=O)NC[C@H]1O[C@@H](n2cc(Cc3ccc(C4CC4)cc3)c3c(Cl)cccc32)[C@H](O)[C@@H](O)[C@@H]1O	Ratio EC50 [14]: 20
0.184	O=C(NC[C@H]1O[C@@H](n2cc(Cc3ccc(C4CC4)cc3)c3c(Cl)cccc32)[C@H](O)[C@@H](O)[C@@H]1O)C(Cl)Cl	–
0.039	COC(=O)CC(=O)NC[C@H]1O[C@@H](n2cc(Cc3ccc(C4CC4)cc3)c3c(Cl)cccc32)[C@H](O)[C@@H](O)[C@@H]1O	Activity [15]: inactive
0.649	CC(C)C(=O)NC[C@H]1O[C@@H](n2cc(Cc3ccc(C4CC4)cc3)c3c(Cl)cccc32)[C@H](O)[C@@H](O)[C@@H]1O	–
0.113	O=C(CCl)NC[C@H]1O[C@@H](n2cc(Cc3ccc(C4CC4)cc3)c3c(Cl)cccc32)[C@H](O)[C@@H](O)[C@@H]1O	–
0.485	COc1ccc(NC(=S)NC[C@H]2O[C@@H](n3cc(Cc4ccc(C5CC5)cc4)c4c(Cl)cccc43)[C@H](O)[C@@H](O)[C@@H]2O)cc1	–
0.16	O=C(CCCl)NC[C@H]1O[C@@H](n2cc(Cc3ccc(C4CC4)cc3)c3c(Cl)cccc32)[C@H](O)[C@@H](O)[C@@H]1O	–
2.09	O=C(CSc1ccccc1)NC[C@H]1O[C@@H](n2cc(Cc3ccc(C4CC4)cc3)c3c(Cl)cccc32)[C@H](O)[C@@H](O)[C@@H]1O	–
0.499	O=C(Cc1cccs1)NC[C@H]1O[C@@H](n2cc(Cc3ccc(C4CC4)cc3)c3c(Cl)cccc32)[C@H](O)[C@@H](O)[C@@H]1O	–
2.59	O=C(NC[C@H]1O[C@@H](n2cc(Cc3ccc(C4CC4)cc3)c3c(Cl)cccc32)[C@H](O)[C@@H](O)[C@@H]1O)c1ccc(CCl)cc1	–
0.552	O=C(NC[C@H]1O[C@@H](n2cc(Cc3ccc(C4CC4)cc3)c3c(Cl)cccc32)[C@H](O)[C@@H](O)[C@@H]1O)C1CC1	–
2.37	COc1ccc(C(=O)NC[C@H]2O[C@@H](n3cc(Cc4ccc(C5CC5)cc4)c4c(Cl)cccc43)[C@H](O)[C@@H](O)[C@@H]2O)cc1	–
